Here are results for two compounds from ChEMBL document CHEMBL1157511, “Dictazolines A and B, bisspiroimidazolidinones from the marine sponge Smenospongia cerebriformis” (J Nat Prod, 2008).

The source made the active and inactive calls. The calls are words filed in the database; no cut-off is given here.

A short description of this assay: Inhibition of beta-secretase assessed as proteolytic cleavage of amyloid precursor protein.

Turning to `CN1C(=N)N(C)[C@@]2(Cc3c([nH]c4ccccc34)[C@]3(C(=O)N(C)C(=N)N3C)[C@@H]2c2c[nH]c3cc(Br)ccc23)C1=O`, the result was inactive. The same measure for `CN1C(=N)N(C)[C@@]2(Cc3c([nH]c4ccccc34)[C@]3(C(=O)N(C)C(=N)N3C)[C@@H]2c2c[nH]c3ccccc23)C1=O`: “inactive”.
